Assay in all cases: relative viability (nuclei count vs DMSO), 5 days (fraction); higher = more cells survive
Compound in assay [1]: C1CC(C2=C(C1)C3=C(N2)C=CC(=C3)Cl)C(=O)N [Selisistat] + Cc1nc(NC(=O)N2CCC[C@H]2C(N)=O)sc1-c1ccnc(C(C)(C)C(F)(F)F)c1 [Alpelisib] (partner 2 µM)
Put shortly: (§1)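 Lung cancer cell lines in 1536-well plates were dosed by pin tool the day after seeding, either with one drug alone or with a fixed anchor-drug dose plus five library-drug doses (not always all listed) in √10 steps. After 5 days, cells were fixed and their nuclei stained in one step (final 0.05% Triton X-100, 1% formaldehyde, 1 ug/ml Hoechst), then counted on 4× images. Relative viability is the nuclei count in treated wells divided by that in vehicle wells. Values are medians of duplicate plates.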

Compound in assay [2]: C1CC(C2=C(C1)C3=C(N2)C=CC(=C3)Cl)C(=O)N [Selisistat] + CC(=O)c1c(C)c2cnc(Nc3ccc(N4CCNCC4)cn3)nc2n(C2CCCC2)c1=O [Palbociclib] (partner 0.5 µM)
Put shortly:
as §1

Compound in assay [3]: c1ccc2c(CCNc3ccc(Nc4ccncc4)cc3)c[nH]c2c1 [Serdemetan] + Nc1nc2[nH]cc(CCc3ccc(C(=O)N[C@@H](CCC(=O)O)C(=O)O)cc3)c2c(=O)[nH]1 [Pemetrexed] (partner 0.2 µM)
The gist of the method:
as §1

Compound in assay [4]: c1ccc2c(CCNc3ccc(Nc4ccncc4)cc3)c[nH]c2c1 [Serdemetan] + CS(=O)(=O)N1CCN(Cc2cc3nc(-c4cccc5[nH]ncc45)nc(N4CCOCC4)c3s2)CC1 [Pictilisib] (partner 1 µM)
The gist of the method:
as §1

As for NCI-H322M, the relative viability in assay [1] (first compound 0.4 µM) is 0.932; in assay [1] (first compound 1.265 µM), 0.934; in assay [1] (first compound 12.65 µM), 0.734; in assay [1] (first compound 40 µM) it was 0.819; in assay [2] (first compound 0.4 µM), 0.488; in assay [2] (first compound 1.265 µM), 0.467. The relative viability in assay [2] (first compound 12.65 µM) was 0.478; in assay [2] (first compound 40 µM), 0.5; in assay [3] (first compound 0.04 µM), 0.576; in assay [3] (first compound 0.1265 µM), 0.583; in assay [3] (first compound 0.4 µM), 0.622; in assay [3] (first compound 1.265 µM), 0.645. In addition, the relative viability in assay [3] (first compound 4 µM) turned out to be 0.628; in assay [4] (first compound 0.04 µM) it was 0.519; in assay [4] (first compound 0.1265 µM) it was 0.505; in assay [4] (first compound 0.4 µM) it was 0.468; in assay [4] (first compound 1.265 µM) it was 0.552; in assay [4] (first compound 4 µM), 0.516.

Consider NCI-H2170, for which the relative viability in assay [1] (first compound 0.4 µM) was determined as 0.885; in assay [1] (first compound 1.265 µM), 0.805; in assay [1] (first compound 4 µM), 0.815; in assay [1] (first compound 12.65 µM) it was 0.771; in assay [1] (first compound 40 µM), 0.881; in assay [2] (first compound 0.4 µM) it was 0.436. In addition, the relative viability in assay [2] (first compound 1.265 µM) was 0.396; in assay [2] (first compound 4 µM), 0.413; in assay [2] (first compound 12.65 µM), 0.458; in assay [2] (first compound 40 µM), 0.475; in assay [3] (first compound 0.04 µM), 0.231; in assay [3] (first compound 0.1265 µM), 0.288. Besides, the relative viability in assay [3] (first compound 0.4 µM) came to 0.248; in assay [3] (first compound 1.265 µM), 0.266; in assay [3] (first compound 4 µM) it was 0.284; in assay [4] (first compound 0.04 µM) it was 0.365; in assay [4] (first compound 0.1265 µM), 0.34; in assay [4] (first compound 0.4 µM), 0.311. The results for the relative viability in assay [4] (first compound 1.265 µM) and in assay [4] (first compound 4 µM) were 0.28 and 0.349, respectively.

In the case of NCI-H1395, the relative viability in assay [1] (first compound 0.4 µM) amounted to 1.07; in assay [1] (first compound 1.265 µM), 1.01; in assay [1] (first compound 4 µM), 0.977; in assay [1] (first compound 12.65 µM), 0.864; in assay [1] (first compound 40 µM) it was 0.996; in assay [2] (first compound 0.4 µM) it was 0.579. The relative viability in assay [2] (first compound 1.265 µM) was 0.664; in assay [2] (first compound 12.65 µM), 0.6; in assay [2] (first compound 40 µM) it was 0.55; in assay [3] (first compound 0.04 µM), 0.853; in assay [3] (first compound 0.1265 µM) it was 0.925; in assay [3] (first compound 0.4 µM), 0.886. For the same cell line, the relative viability was 0.705 in assay [3] (first compound 1.265 µM); 0.518 in assay [3] (first compound 4 µM); 0.574 in assay [4] (first compound 0.04 µM); 0.619 in assay [4] (first compound 0.1265 µM); 0.676 in assay [4] (first compound 0.4 µM); 0.485 in assay [4] (first compound 1.265 µM). Further, the relative viability in assay [4] (first compound 4 µM) was found to be 0.475.

For NCI-H358, the relative viability worked out at 0.865 in assay [1] (first compound 0.4 µM); 0.942 in assay [1] (first compound 1.265 µM); 0.932 in assay [1] (first compound 12.65 µM); 0.912 in assay [1] (first compound 40 µM); 0.137 in assay [2] (first compound 0.4 µM); 0.128 in assay [2] (first compound 1.265 µM). Moreover, the relative viability in assay [2] (first compound 4 µM) was found to be 0.128; in assay [2] (first compound 12.65 µM), 0.192; in assay [2] (first compound 40 µM), 0.149; in assay [3] (first compound 0.04 µM) it was 0.173; in assay [3] (first compound 0.1265 µM), 0.155; in assay [3] (first compound 0.4 µM) it was 0.18. The relative viability was determined as 0.148 in assay [3] (first compound 1.265 µM); 0.163 in assay [3] (first compound 4 µM); 0.364 in assay [4] (first compound 0.04 µM); 0.368 in assay [4] (first compound 0.1265 µM); 0.332 in assay [4] (first compound 0.4 µM); 0.281 in assay [4] (first compound 1.265 µM). For the same cell line, the relative viability in assay [4] (first compound 4 µM) was 0.317.

Turning to NCI-H838, the relative viability in assay [1] (first compound 0.4 µM) turned out to be 1.11; in assay [1] (first compound 1.265 µM), 0.971; in assay [1] (first compound 4 µM), 0.912; in assay [1] (first compound 12.65 µM), 1.1; in assay [1] (first compound 40 µM), 0.954; in assay [2] (first compound 0.4 µM), 0.208. Further, the relative viability in assay [2] (first compound 1.265 µM) is 0.223; in assay [2] (first compound 4 µM), 0.185; in assay [2] (first compound 12.65 µM), 0.242; in assay [2] (first compound 40 µM), 0.206; in assay [3] (first compound 0.04 µM), 0.232; in assay [3] (first compound 0.1265 µM), 0.263. In addition, the relative viability in assay [3] (first compound 0.4 µM) came to 0.249; in assay [3] (first compound 1.265 µM), 0.209; in assay [3] (first compound 4 µM) it was 0.235; in assay [4] (first compound 0.04 µM), 0.395; in assay [4] (first compound 0.1265 µM), 0.508; in assay [4] (first compound 0.4 µM), 0.507. Moreover, the relative viability was found to be 0.438 in assay [4] (first compound 1.265 µM) and 0.549 in assay [4] (first compound 4 µM).

CAL-12T: the relative viability was found to be 1.29 in assay [1] (first compound 0.4 µM); 1.07 in assay [1] (first compound 1.265 µM); 1.14 in assay [1] (first compound 4 µM); 1.16 in assay [1] (first compound 12.65 µM); 1.19 in assay [1] (first compound 40 µM); 0.534 in assay [2] (first compound 0.4 µM). Further, the relative viability in assay [2] (first compound 1.265 µM) is 0.41; in assay [2] (first compound 4 µM) it was 0.122; in assay [2] (first compound 12.65 µM) it was 0.448; in assay [2] (first compound 40 µM), 0.409; in assay [3] (first compound 0.04 µM), 1.17; in assay [3] (first compound 0.1265 µM), 1.19. Moreover, the relative viability in assay [3] (first compound 0.4 µM) was determined as 0.951; in assay [3] (first compound 1.265 µM), 1.19; in assay [3] (first compound 4 µM), 1.05; in assay [4] (first compound 0.1265 µM), 0.521; in assay [4] (first compound 1.265 µM), 0.369; in assay [4] (first compound 4 µM), 0.368.

Values taken from the supplement of paper PMC10307832.
